Measured values: US7704995B2 (Exelixis, Inc., priority 2003, dated 2010)
pIC50: −log10 of the molar value.

Target: T1, Chk1 (Homo sapiens, UniProt O14757)
T1 construct: purchased Upstate Biotechnology
T1 sequence (O14757 1-476): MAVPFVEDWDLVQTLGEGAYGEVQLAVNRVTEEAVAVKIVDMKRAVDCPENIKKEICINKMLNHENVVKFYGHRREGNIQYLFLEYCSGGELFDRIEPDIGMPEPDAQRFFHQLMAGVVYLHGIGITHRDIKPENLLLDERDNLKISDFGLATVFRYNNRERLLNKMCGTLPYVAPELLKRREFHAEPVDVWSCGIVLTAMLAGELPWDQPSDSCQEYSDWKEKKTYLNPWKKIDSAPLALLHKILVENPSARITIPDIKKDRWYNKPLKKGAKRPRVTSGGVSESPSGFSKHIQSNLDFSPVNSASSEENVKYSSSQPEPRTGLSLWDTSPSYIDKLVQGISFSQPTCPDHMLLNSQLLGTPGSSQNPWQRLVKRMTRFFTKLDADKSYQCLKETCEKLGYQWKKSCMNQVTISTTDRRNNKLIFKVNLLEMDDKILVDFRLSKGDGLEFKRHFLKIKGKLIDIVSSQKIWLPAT
Assay: Chk1 kinase assay: incorporation of γ-33P ATP into immobilized myelin basic protein
Assay type: biochemical
Details: Table 11; Chk1 only; read-out: Chk1 IC50
Summary of the method: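 Plates coated with MBP, then kinase reactions in Hepes pH 7.6 buffer with 10 mM MgCl2 and 1% DMSO were started by adding unlabeled plus γ-33P ATP (10 μM for Chk1 at 10 nM enzyme; 30 μM for Chk2 at 20 nM enzyme). After 1 h at room temperature, plates were washed and counted.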

Structure (SMILES) | pIC50
COc1ccc(N/N=C(\C)c2nc(-c3cccc(C(=O)NCc4ccccc4)c3)cnc2N)cc1 [Example 599, 3-(5-amino-6-{(1E)-N-[4-(methyloxy)phenyl]ethanehydrazonoyl}pyrazin-2-yl)-N-(phenylmethyl)benzamide] | 5.00 to 6.00
C/C(=N\Nc1ccc(C(C)C)cc1)c1nc(-c2cccc(C(=O)NCc3ccccc3)c2)cnc1N [Example 600, 3-(5-amino-6-{(1E)-N-[4-(1-methylethyl)phenyl]ethanehydrazonoyl}pyrazin-2-yl)-N-(phenylmethyl)benzamide] | 5.00 to 6.00
C/C(=N\Nc1nc2ccccc2s1)c1nc(-c2cccc(C(=O)NCc3ccccc3)c2)cnc1N [Example 601, 3-{5-amino-6-[(1E)-N-1,3-benzothiazol-2-ylethanehydrazonoyl]pyrazin-2-yl}-N-(phenylmethyl)benzamide] | ≤ 5.00
C/C(=N\Nc1ccc(C)cc1)c1nc(-c2cccc(C(=O)NCc3ccccc3)c2)cnc1N [Example 602, 3-{5-amino-6-[(1E)-N-(4-methylphenyl)ethanehydrazonoyl]pyrazin-2-yl}-N-(phenylmethyl)benzamide] | ≤ 5.00
C/C(=N\Nc1ccc(Cl)cc1)c1nc(-c2cccc(C(=O)NCc3ccccc3)c2)cnc1N [Example 603, 3-{5-amino-6-[(1E)-N-(4-chlorophenyl)ethanehydrazonoyl]pyrazin-2-yl}-N-(phenylmethyl)benzamide] | ≤ 5.00
C/C(=N\N(C)c1ccccc1)c1nc(-c2cccc(C(=O)NCc3ccccc3)c2)cnc1N [Example 604, 3-{5-amino-6-[(1E)-N-methyl-N-phenylethanehydrazonoyl]pyrazin-2-yl}-N-(phenylmethyl)benzamide] | 5.00 to 6.00
C/C(=N\NCCO)c1nc(-c2cccc(C(=O)NCc3ccccc3)c2)cnc1N [Example 605, 3-{5-amino-6-[(1E)-N-(2-hydroxyethyl)ethanehydrazonoyl]pyrazin-2-yl}-N-(phenylmethyl)benzamide] | 6.00 to 7.30
Nc1ncc(-c2cccc(CO)c2)nc1-c1nc(-c2ccncc2)n[nH]1 [Example 606, {3-[5-amino-6-(3-pyridin-4-yl-1H-1,2,4-triazol-5-yl)pyrazin-2-yl]phenyl}methanol] | > 7.30
Nc1ncc(-c2cccc(CO)c2)nc1-c1nc(C2CCNCC2)n[nH]1 [Example 607, {3-[5-amino-6-(3-piperidin-4-yl-1H-1,2,4-triazol-5-yl)pyrazin-2-yl]phenyl}methanol] | 5.00 to 6.00
Nc1nccc(-c2nc(-c3cccc(C(=O)NCc4ccccc4)c3)cnc2N)n1 [Example 608, 3-[5-amino-6-(2-aminopyrimidin-4-yl)pyrazin-2-yl]-N-(phenylmethyl)benzamide] | 5.00 to 6.00
CN(C)c1nccc(-c2nc(-c3cccc(C(=O)NCc4ccccc4)c3)cnc2N)n1 [Example 609, 3-{5-amino-6-[2-(dimethylamino)pyrimidin-4-yl]pyrazin-2-yl}-N-(phenylmethyl)benzamide] | ≤ 5.00
CCOC(=O)[C@H](Cc1ccc(O)cc1)NC(=O)c1nc(-c2cccc(C(=O)NCc3ccccc3)c2)cnc1N [Example 610, ethyl N-{[3-amino-6-(3-{[(phenylmethyl)amino]carbonyl}phenyl)pyrazin-2-yl]carbonyl}-L-tyrosinate] | ≤ 5.00
Nc1ncc(-c2cccc(C(=O)NCc3ccccc3)c2)nc1C(=O)N[C@H](Cc1ccc(O)cc1)C(=O)O [Example 611, N-{[3-amino-6-(3-{[(phenylmethyl)amino]carbonyl}phenyl)pyrazin-2-yl]carbonyl}-D-tyrosine] | ≤ 5.00
CC(C)(C)OC(=O)NCCCNC(=O)c1nc(-c2cccc(C(=O)NCc3ccccc3)c2)cnc1N [Example 612, 1,1-dimethylethyl [3-({[3-amino-6-(3-{[(phenylmethyl)amino]carbonyl}phenyl)pyrazin-2-yl]carbonyl}amino)propyl]carbamate] | ≤ 5.00
NCCCNC(=O)c1nc(-c2cccc(C(=O)NCc3ccccc3)c2)cnc1N [Example 613, 3-amino-N-(3-aminopropyl)-6-(3-{[(phenylmethyl)amino]carbonyl}phenyl)pyrazine-2-carboxamide] | 6.00 to 7.30
Nc1ncc(-c2cccc(C(=O)NCc3ccccc3)c2)nc1C(=O)N1CCCC(C(=O)O)C1 (stereo not drawn) [Example 614, 1-{[3-amino-6-(3-{[(phenylmethyl)amino]carbonyl}phenyl)pyrazin-2-yl]carbonyl}piperidine-3-carboxylic] | ≤ 5.00
CC(C)(C)OC(=O)NCCNC(=O)c1nc(-c2cccc(C(=O)NCc3ccccc3)c2)cnc1N [Example 615, 1,1-dimethylethyl [2-({[3-amino-6-(3-{[(phenylmethyl)amino]carbonyl}phenyl)pyrazin-2-yl]carbonyl}amino)ethyl]carbamate] | ≤ 5.00

Structure (SMILES) | pIC50
NCCNC(=O)c1nc(-c2cccc(C(=O)NCc3ccccc3)c2)cnc1N [Example 616, 3-amino-N-(2-aminoethyl)-6-(3-{[(phenylmethyl)amino]carbonyl}phenyl)pyrazine-2-carboxamide] | 6.00 to 7.30
CC(C)(C)OC(=O)NC1CCN(C(=O)c2nc(-c3cccc(C(=O)NCc4ccccc4)c3)cnc2N)CC1 [Example 617, 1,1-dimethylethyl (1-{[3-amino-6-(3-{[(phenylmethyl)amino]carbonyl}phenyl)pyrazin-2-yl]carbonyl}piperidin-4-yl)carbamate] | ≤ 5.00
Nc1ncc(-c2cccc(C(=O)NCc3ccccc3)c2)nc1C(=O)N1CCC(N)CC1 [Example 618, 3-{5-amino-6-[(4-aminopiperidin-1-yl)carbonyl]pyrazin-2-yl}-N-(phenylmethyl)benzamide] | ≤ 5.00
N=C(NNc1ccccc1)c1nc(-c2cccc(C(=O)NCc3ccccc3)c2)cnc1N [Example 619, 3-{5-amino-6-[imino(2-phenylhydrazino)methyl]pyrazin-2-yl}-N-(phenylmethyl)benzamide] | 5.00 to 6.00
N=C(NN1CCOCC1)c1nc(-c2cccc(C(=O)NCc3ccccc3)c2)cnc1N [Example 620, 3-{5-amino-6-[imino(morpholin-4-ylamino)methyl]pyrazin-2-yl}-N-(phenylmethyl)benzamide] | 5.00 to 6.00
CN1CCN(NC(=N)c2nc(-c3cccc(C(=O)NCc4ccccc4)c3)cnc2N)CC1 [Example 621, 3-(5-amino-6-{imino[(4-methylpiperazin-1-yl)amino]methyl}pyrazin-2-yl)-N-(phenylmethyl)benzamide] | ≤ 5.00
N=C(NN1CCCCC1)c1nc(-c2cccc(C(=O)NCc3ccccc3)c2)cnc1N [Example 622, 3-{5-amino-6-[imino(piperidin-1-ylamino)methyl]pyrazin-2-yl}-N-(phenylmethyl)benzamide] | ≤ 5.00
N=C(NN1CCCCCC1)c1nc(-c2cccc(C(=O)NCc3ccccc3)c2)cnc1N [Example 623, 3-{5-amino-6-[(azepan-1-ylamino)(imino)methyl]pyrazin-2-yl}-N-(phenylmethyl)benzamide] | 5.00 to 6.00
COC[C@H]1CCCN1NC(=N)c1nc(-c2cccc(C(=O)NCc3ccccc3)c2)cnc1N [Example 624, 3-{5-amino-6-[imino({(2R)-2-[(methyloxy)methyl]pyrrolidin-1-yl}amino)methyl]pyrazin-2-yl}-N-(phenylmethyl)benzamide] | ≤ 5.00
Nc1ncc(-c2cccc(CO)c2)nc1-c1nc(C2CCCNC2)n[nH]1 (stereo not drawn) [Example 625, {3-[5-amino-6-(3-piperidin-3-yl-1H-1,2,4-triazol-5-yl)pyrazin-2-yl]phenyl}methanol] | 6.00 to 7.30
C/C(=N\N1CCOCC1)c1nc(-c2cccc(C(=O)NCc3ccccc3)c2)cnc1N [Example 626, 3-{5-amino-6-[(1E)-N-morpholin-4-ylethanimidoyl]pyrazin-2-yl}-N-(phenylmethyl)benzamide] | 5.00 to 6.00
C/C(=N\Nc1ccc(C(=O)O)cc1)c1nc(-c2cccc(C(=O)NCc3ccccc3)c2)cnc1N [Example 627, 4-((2E)-2-{1-[3-amino-6-(3-{[(phenylmethyl)amino]carbonyl}phenyl)pyrazin-2-yl]ethylidene}hydrazino)benzoic acid] | 5.00 to 6.00
CCOC(=O)CN/N=C(\C)c1nc(-c2cccc(C(=O)NCc3ccccc3)c2)cnc1N [Example 628, ethyl ((2E)-2-{1-[3-amino-6-(3-{[(phenylmethyl)amino]carbonyl}phenyl)pyrazin-2-yl]ethylidene}hydrazino)acetate] | ≤ 5.00
C/C(=N\N(C)C)c1nc(-c2cccc(C(=O)NCc3ccccc3)c2)cnc1N [Example 629, 3-{5-amino-6-[(1E)-N,N-dimethylethanehydrazonoyl]pyrazin-2-yl}-N-(phenylmethyl)benzamide] | 6.00 to 7.30
C/C(=N\Nc1ccc(S(C)(=O)=O)cc1)c1nc(-c2cccc(C(=O)NCc3ccccc3)c2)cnc1N [Example 630, 3-(5-amino-6-{(1E)-N-[4-(methylsulfonyl)phenyl]ethanehydrazonoyl}pyrazin-2-yl)-N-(phenylmethyl)benzamide] | ≤ 5.00
C/C(=N\Nc1ccc(C#N)cc1)c1nc(-c2cccc(C(=O)NCc3ccccc3)c2)cnc1N [Example 631, 3-{5-amino-6-[(1E)-N-(4-cyanophenyl)ethanehydrazonoyl]pyrazin-2-yl}-N-(phenylmethyl)benzamide] | ≤ 5.00
